{"source": "patent US8802597B2", "about": "“Herbicidal pyrimidines” (E I du Pont de Nemours and Company, priority 2003, dated 2014)", "experiment_in_all_cases": "Test C pre/postemergence", "format_in_all_cases": "in vivo", "key": {"[1]": {"test_system": "johnsongrass (Sorghum halepense)", "conditions": "for pest or weed control at 16 g/ha: 16 g ai/ha", "method_in_brief": "(§1)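 Greenhouse herbicide screen, visual readout. Compound in solvent/surfactant applied preemergence at planting or postemergence to 1- to 4-leaf plants; assessed at 12–14 days on a 0–100 control scale.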"}, "[2]": {"test_system": "morningglory (Ipomoea coccinea)", "conditions": "for Plant response rating, Morningglory: Preemergence", "method_in_brief": "as §1"}, "[3]": {"test_system": "bermudagrass (Cynodon dactylon)", "conditions": "for pest or weed control at 16 g/ha: 16 g ai/ha", "method_in_brief": "as §1"}, "corn (Zea mays)": {"test_system": "corn (Zea mays)", "conditions": "for Plant response rating, Corn: Preemergence", "method_in_brief": "as §1"}, "[4]": {"test_system": "woolly cupgrass (Eriochloa villosa)", "conditions": "for pest or weed control at 16 g/ha: 16 g ai/ha", "method_in_brief": "as §1"}, "[5]": {"test_system": "common ragweed (Ambrosia elatior)", "conditions": "Ambrosia artemisiifolia, post-emergence, Postemergence, read-out: Plant response rating (scale of 0 to 100), Ragweed", "method_in_brief": "as §1"}, "[6]": {"conditions": "Preemergence, 31 g ai/ha, scale 0 to 100, 0 no effect, 100 complete control"}, "[7]": {"conditions": "Preemergence, 62 g ai/ha, scale 0 to 100, 0 no effect, 100 complete control"}, "[8]": {"conditions": "Preemergence, 125 g ai/ha, scale 0 to 100"}, "[9]": {"conditions": "16 g ai/ha, scale 0 to 100, 0 no effect, 100 complete control"}, "[10]": {"conditions": "31 g ai/ha, scale 0 to 100, 0 no effect, 100 complete control"}, "[11]": {"conditions": "62 g ai/ha, scale 0 to 100, 0 no effect, 100 complete control"}}, "note": "Like-named read-outs stand apart in the source and are kept apart here."}
{"compound": "Nc1nc(C2CC2)nc(C(=O)O)c1Cl", "note": "[Compound 135, 6-amino-5-chloro-2-cyclopropyl-4-pyrimidinecarboxylic acid]", "values": [{"measurement": "Plant response rating, Johnsongrass", "setting": "[1]; [6]", "result": 0}, {"measurement": "Plant response rating, Johnsongrass", "setting": "[1]; [7]", "result": 5}, {"measurement": "Plant response rating, Johnsongrass", "setting": "[1]; [8]", "result": 40}, {"measurement": "pest or weed control at 16 g/ha", "setting": "[1]; Sorghum halepense, post-emergence, Postemergence, read-out: Plant response rating (scale of 0 to 100), Johnsongrass", "result": 15, "unit": "%"}, {"measurement": "pest or weed control at 31 g/ha", "setting": "[1]; Sorghum halepense, post-emergence, Postemergence, 31 g ai/ha, read-out: Plant response rating (scale of 0 to 100), Johnsongrass", "result": 35, "unit": "%"}, {"measurement": "pest or weed control at 62 g/ha", "setting": "[1]; Sorghum halepense, post-emergence, Postemergence, 62 g ai/ha, read-out: Plant response rating (scale of 0 to 100), Johnsongrass", "result": 65, "unit": "%"}, {"measurement": "pest or weed control at 125 g/ha", "setting": "[1]; Sorghum halepense, post-emergence, Postemergence, 125 g ai/ha, scale 0 to 100 (0 no effect, 100 complete control), read-out: Johnsongrass plant response rating", "result": 70, "unit": "%"}, {"measurement": "pest or weed control at 16 g/ha", "setting": "[1]; Sorghum halepense, pre-emergence, Preemergence, scale 0 to 100, 0 no effect, 100 complete control, read-out: Plant response rating, Johnsongrass", "result": 0, "unit": "%"}, {"measurement": "pest or weed control at 16 g/ha", "setting": "[2]; Ipomoea, post-emergence, Postemergence, 16 g ai/ha, read-out: Plant response rating (scale of 0 to 100), Morningglory", "result": 80, "unit": "%"}, {"measurement": "pest or weed control at 31 g/ha", "setting": "[2]; Ipomoea, post-emergence, Postemergence, 31 g ai/ha, read-out: Plant response rating (scale of 0 to 100), Morningglory", "result": 90, "unit": "%"}, {"measurement": "pest or weed control at 62 g/ha", "setting": "[2]; Ipomoea, post-emergence, Postemergence, 62 g ai/ha, read-out: Plant response rating (scale of 0 to 100), Morningglory", "result": 95, "unit": "%"}, {"measurement": "pest or weed control at 125 g/ha", "setting": "[2]; Ipomoea, post-emergence, Postemergence, 125 g ai/ha, scale 0 to 100 (0 no effect, 100 complete control), read-out: Morningglory plant response rating", "result": 95, "unit": "%"}, {"measurement": "Plant response rating, Morningglory", "setting": "[2]; [9]", "result": 85}, {"measurement": "Plant response rating, Morningglory", "setting": "[2]; [10]", "result": 90}, {"measurement": "Plant response rating, Morningglory", "setting": "[2]; [11]", "result": 90}, {"measurement": "Plant response rating, Morningglory", "setting": "[2]; 125 g ai/ha, scale 0 to 100", "result": 100}, {"measurement": "pest or weed control at 16 g/ha", "setting": "[3]; Cynodon dactylon, post-emergence, Postemergence, read-out: Plant response rating (scale of 0 to 100), Bermudagrass", "result": 40, "unit": "%"}, {"measurement": "pest or weed control at 62 g/ha", "setting": "[3]; Cynodon dactylon, post-emergence, Postemergence, 62 g ai/ha, scale 0 to 100 (0 no effect, 100 complete control), read-out: Bermudagrass plant response rating", "result": 60, "unit": "%"}, {"measurement": "pest or weed control at 125 g/ha", "setting": "[3]; Cynodon dactylon, post-emergence, Postemergence, 125 g ai/ha, scale 0 to 100 (0 no effect, 100 complete control), read-out: Bermudagrass plant response rating", "result": 75, "unit": "%"}, {"measurement": "pest or weed control at 16 g/ha", "setting": "[3]; Cynodon dactylon, pre-emergence, Preemergence, scale 0 to 100, 0 no effect, 100 complete control, read-out: Plant response rating, Bermudagrass", "result": 0, "unit": "%"}, {"measurement": "Plant response rating, Bermudagrass", "setting": "[3]; [6]", "result": 0}, {"measurement": "Plant response rating, Bermudagrass", "setting": "[3]; [7]", "result": 0}, {"measurement": "Plant response rating, Bermudagrass", "setting": "[3]; [8]", "result": 0}, {"measurement": "Plant response rating, Corn", "setting": "corn (Zea mays); [9]", "result": 5}, {"measurement": "Plant response rating, Corn", "setting": "corn (Zea mays); [10]", "result": 30}, {"measurement": "Plant response rating, Corn", "setting": "corn (Zea mays); [11]", "result": 30}, {"measurement": "Plant response rating, Corn", "setting": "corn (Zea mays); 125 g ai/ha, scale 0 to 100", "result": 70}, {"measurement": "Corn plant response rating (crop injury, 0 = no effect, 100 = complete kill) at 16 g/ha", "setting": "corn (Zea mays); Zea mays, post-emergence, Postemergence, 16 g ai/ha, read-out: Plant response rating (scale of 0 to 100), Corn", "result": 5, "unit": "%"}, {"measurement": "Corn plant response rating (crop injury, 0 = no effect, 100 = complete kill) at 31 g/ha", "setting": "corn (Zea mays); Zea mays, post-emergence, Postemergence, 31 g ai/ha, read-out: Plant response rating (scale of 0 to 100), Corn", "result": 10, "unit": "%"}, {"measurement": "Corn plant response rating (crop injury, 0 = no effect, 100 = complete kill) at 62 g/ha", "setting": "corn (Zea mays); Zea mays, post-emergence, Postemergence, 62 g ai/ha, read-out: Plant response rating (scale of 0 to 100), Corn", "result": 20, "unit": "%"}, {"measurement": "Corn plant response rating (crop injury, 0 = no effect, 100 = complete kill) at 125 g/ha", "setting": "corn (Zea mays); Zea mays, post-emergence, Postemergence, 125 g ai/ha, scale 0 to 100 (0 no effect, 100 complete control), read-out: Corn plant response rating", "result": 35, "unit": "%"}, {"measurement": "pest or weed control at 16 g/ha", "setting": "[4]; Eriochloa villosa, post-emergence, Postemergence, read-out: Plant response rating (scale of 0 to 100), Cupgrass, Woolly", "result": 30, "unit": "%"}, {"measurement": "pest or weed control at 31 g/ha", "setting": "[4]; Eriochloa villosa, post-emergence, Postemergence, 31 g ai/ha, read-out: Plant response rating (scale of 0 to 100), Cupgrass, Woolly", "result": 60, "unit": "%"}, {"measurement": "pest or weed control at 62 g/ha", "setting": "[4]; Eriochloa villosa, post-emergence, Postemergence, 62 g ai/ha, read-out: Plant response rating (scale of 0 to 100), Cupgrass, Woolly", "result": 60, "unit": "%"}, {"measurement": "pest or weed control at 125 g/ha", "setting": "[4]; Eriochloa villosa, post-emergence, Postemergence, 125 g ai/ha, scale 0 to 100 (0 no effect, 100 complete control), read-out: Cupgrass, Woolly plant response rating", "result": 80, "unit": "%"}, {"measurement": "pest or weed control at 16 g/ha", "setting": "[4]; Eriochloa villosa, pre-emergence, Preemergence, scale 0 to 100, 0 no effect, 100 complete control, read-out: Plant response rating, Cupgrass, Woolly", "result": 0, "unit": "%"}, {"measurement": "Plant response rating, Cupgrass, Woolly", "setting": "[4]; [6]", "result": 0}, {"measurement": "Plant response rating, Cupgrass, Woolly", "setting": "[4]; [7]", "result": 0}, {"measurement": "Plant response rating, Cupgrass, Woolly", "setting": "[4]; [8]", "result": 0}, {"measurement": "pest or weed control at 16 g/ha", "setting": "[5]; 16 g ai/ha", "result": 75, "unit": "%"}, {"measurement": "pest or weed control at 31 g/ha", "setting": "[5]; 31 g ai/ha", "result": 80, "unit": "%"}]}
